Laboratory results: patent US20190167593A1, “C[…] PHARMACEUTICALLY ACCEPTABLE SALT THEREOF, AND APPLICATION OF SAME” (priority 2016, published 2019)
In brackets after ≈: the same amount, converted by molar mass. Where two headings read alike, the source gives them in different places.

Key:
[1] = tested on: A/Puerto Rico/8/34 (H1N1) (PR8); experiment: organism not typed; format: cell-based; details: MDCK cells, crystal violet staining, 3 days, read-out: IC50 against influenza virus replication (plaque formation), PR8
[2] = tested on: influenza virus PR8; details: mouse, in vivo
[3] = physchem; format: physicochemical; details: molar ratio compound:acid as listed per salt
[4] = physchem; format: physicochemical; details: Non-lactic acid

| Molecule | IC50 ([1]; listed as COMPOUND TO BE TESTED OF FORMULA I) [nM] | IC50 ([1]; MDCK, 72 h) [nM] | body weight [2] | PH VALUE OF THE SOLUTION [3] | solubility ([3]; water, unit printed in b135 only) [µg/mL] | pH VALUE [4] | solubility ([4]; pH 7.8) [µg/mL] | IC50 ([1]; phosphate) [nM] | disease symptoms [2] | IC50 [1] [nM] |
| --- | --- | --- | --- | --- | --- | --- | --- | --- | --- | --- |
| CCCCS(=O)(=O)N[C@@H]1CCCN([C@@H]2C=C(C(=O)O)C[C@H](NC(=N)N)[C@H]2NC(C)=O)C1 [(3R,4R,5S)-4-acetamido-5-guanidino-3-((3R)-3-n-butylsulfonamidopiperidin)-1-cyclohexene-1-carboxylic acid] | 252 | 250 | slightly decreased | 7.8 | 2500 | 7.8 | 2500 (≈ 5.45 mM) | – | – | – |
| CCOC(=O)C1=C[C@@H](OC(CC)CC)[C@H](NC(C)=O)[C@@H](N)C1.O=P(O)(O)O [Oseltamivir phosphate, ethyl (3R, 4R, 5S)-4-acetamido-5-amino-3-(1-ethylpropoxy)-1-cyclohexene-1-carboxylate phosphate] | – | 130 | – | – | – | – | – | 133 | obvious disease symptoms | – |
| Peramivir | – | – | – | – | – | – | – | – | – | 17.6 |
